Results on four compounds are retold here after patent US20160158377A1, “BCL-XL Inhibitory Compounds and Antibody Drug Conjugates Including the Same” (AbbVie Inc., priority 2014, published 2016).

Where two headings read alike, the source gives them in different places.

In data set [1] the test system is circulating platelets. As to the kind of experiment: Number of circulating platelets in mice after single intraperitoneal injection. To be noted: for Time after injection at which thrombocytopenia was maximal: following injection of the compounds.
Data set [2] has as its system circulating platelets. To be noted: mouse, in vivo.
In another data set the target is Bcl-xL (Homo sapiens, UniProt Q07817). As to the kind of experiment: TR-FRET Bcl-xL binding assay (competition with probe F-Bak). Summed up:
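Compounds were serially diluted from 50 μM (2× starting concentration, 10% DMSO) and mixed with Bcl-xL, F-Bak probe and Tb-labeled anti-His antibody, then incubated 2 h at room temperature. TR-FRET was read at 340 nm excitation and 520/495 nm emission. Ki came from Wang's equation; tested without and with 1% human serum.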
On the technique in general: In TR-FRET formats the signal depends on donor and acceptor labels being close together.

Data set [3] deals with Molt-4 human acute lymphoblastic leukemia cells. Kind of data set: Molt-4 cell viability assay. The class given is cell-based. The note with it: 10% human serum, 48 hours, CellTiter-Glo, read-out: Molt-4 Viability EC50 (nM, 10% HS).

Chain of Bcl-xL (Q07817 whole entry): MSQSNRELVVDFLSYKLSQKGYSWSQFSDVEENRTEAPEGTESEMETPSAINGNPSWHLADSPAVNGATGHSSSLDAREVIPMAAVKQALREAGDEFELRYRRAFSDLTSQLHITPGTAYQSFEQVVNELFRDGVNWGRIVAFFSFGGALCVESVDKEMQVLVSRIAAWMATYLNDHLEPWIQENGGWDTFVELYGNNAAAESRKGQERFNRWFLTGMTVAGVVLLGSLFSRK

For the compound `CNCCOC12CC3(C)CC(C)(CC(Cn4ncc(-c5ccc(N6CCc7cccc(C(=O)Nc8nc9ccccc9s8)c7C6)nc5C(=O)O)c4C)(C3)C1)C2` [Example 2.32.24, 6-[8-(1,3-benzothiazol-2-ylcarbamoyl)-3,4-dihydroisoquinolin-2(1H)-yl]-3-[1-({3,5-dimethyl-7-[2-(methylamino)ethoxy]tricyclo[3.3.1.1^3,7]dec-1-yl}methyl)-5-methyl-1H-pyrazol-4-yl]pyridine-2-carboxylic acid], in the data set on circulating platelets [1] (dose 0.61 mg/kg), the “Platelet number after dosing” value is recorded as 6*10^3 /mm^3 and the “Time to lowest count” value was found to be 6 h. The “Decrease of the platelet number” value in the data set on circulating platelets [1] (dose 0.61 mg/kg, from normal count of approximately 6*10^5/mm^3) is 100 fold. Also, in the data set on circulating platelets [1], the “Time after injection at which thrombocytopenia was maximal” value (“Time after injection” for short) was 6 h.
Consider `Cc1c(-c2ccc(N3CCc4cccc(C(=O)Nc5nc6ccccc6s5)c4C3)nc2C(=O)O)cnn1CC12CC3CC(CC(C3)C1)C2` [Compound A-1331852], for which, in the data set with circulating platelets [1] (dose 25 mg/kg), the “Time to lowest count” value was 6 h. For the same compound, the “Time after injection” value with circulating platelets [1] worked out at 6 h.
As to `CC1(C)CCC(c2ccc(Cl)cc2)=C(CN2CCN(c3ccc(C(=O)NS(=O)(=O)c4ccc(N[C@H](CCN5CCOCC5)CSc5ccccc5)c(S(=O)(=O)C(F)(F)F)c4)cc3)CC2)C1` [ABT-263, Navitoclax], the “Time after injection” value in the data set with circulating platelets [2] was 6 h. In addition, the “Time to lowest count” value in the data set on circulating platelets [2] (100 mg/kg) came to 6 h.
As usually defined, the Ki is the dissociation constant of the complex between target and ligand, obtained from inhibition or displacement. The term EC50 denotes the midpoint of the concentration-response curve. `COCCNCCOC12CC3(C)CC(C)(CC(Cn4ncc(-c5ccc(-c6ccc7cccc(C(=O)Nc8nc9ccccc9s8)c7c6)nc5C(=O)O)c4C)(C3)C1)C2` [Compound W3.15, 6-[8-(1,3-benzothiazol-2-ylcarbamoyl)naphthalen-2-yl]-3-{1-[(3-{2-[(2-methoxyethyl)amino]ethoxy}-5,7-dimethyltricyclo[3.3.1.1^3,7]dec-1-yl)methyl]-5-methyl-1H-pyrazol-4-yl}pyridine-2-carboxylic acid]: the inhibition constant (Ki) was 0.1 nM at Bcl-xL (in the presence of 1% human serum (HS), read-out: Bcl-xL Binding Ki (nM, 1% HS)) and less than 0.001 nM on Bcl-xL (without human serum, read-out: Bcl-xL Binding Ki). Moreover, in data set [3], the EC50 was determined as 2.5 nM.
